Results on four molecules are retold here after patent US8513214B2, “C4′-substituted-2-deoxyadenosine analogs and methods of treating HIV” (The United States of America as Represented by the …, priority 2007, dated 2013).

Data set [1] deals with HIV-1 vectors (wild-type). It is filed as cell-based.
The test system of data set [2] is NRTI-resistant HIV-1, including the M184V variant. Conditions: infected MT-4 cells, Ohrui 2006, Ohuri 2007, Kawamoto 2008, cited from earlier work.
A further data set concerns MT-4 cells. Conditions: previously reported; cited from earlier work.
In a further data set the test system is HIV-1 M184V variant. It is filed as cell-based. Conditions: HOS cells, single-cycle infectivity assay.
Another data set addresses T1, HIV-1 RT (Human immunodeficiency virus type 1 group M subtype B, UniProt P03366).
T1 construct: The expression and purification of HIV-1 RT and the polymerase assays were done as previously described; made in house
In words: Polymerase (DNA) extension assay with purified recombinant HIV-1 RT. It is filed as biochemical. The method, then: FIG. 15. In vitro DNA extension using purified, recombinant HIV-1 RT, with varying amounts of C4′-methyl-2-deoxyadenosinetriphosphate and either (A) a DNA template or (B) and RNA template. […] Bands in the lane containing equimolar amounts of ddATP and dATP correspond to pausing events at the site of incorporation of the nuclosidetriphosphate analog.
The expression and purification of HIV-1 RT and the polymerase assays were done as previously described. For the extension assays, 7.0µl of a […] of synthetic DNA oligonucleotide (5′-[…]-3′ (SEQ ID NO:1); Biosource, CA) was 5′ end-labeled, then annealed to an excess of either a DNA template (5′-[…]-3′ (SEQ ID NO:2)) or an RNA template (5′-[…]-3′ (SEQ ID NO:3)). The A residue is the first nucleotide past the 3′ end of the primer. The annealed template-primer (T/P) was suspended in a final concentration of 25.0 mM Tris (pH 8.0), 75 mM KCl, 8.0 mM MgCl2, 100.0µg/ml BSA, 10.0 mM CHAPS, and 10.0µM each of dCTP, dGTP, and TTP. For the RNA template reactions, the mixture was also supplemented with 1 U/µl of SuperAsin (Ambion). The reaction buffer was aliquoted to individual tubes, then supplemented with a total of 10.0µM dATP and/or adenosine triphosphate analog (as described in the figure legend). The reactions were initiated by the addition of 1.0µg RT and the reaction was incubated at 37° C. for the various indicated time intervals. Reactions were stopped by the addition of EDTA and the reactions precipitated by the addition of isopropyl alcohol. The products were resuspended in formamide gel loading buffer II (Ambion), heated at 70° for 5 min to denature the products, and fractionated on a 15% polyacrylamide sequencing gel.

Another data set has as its system HIV-1 AZT-R. It is filed as cell-based.
The next data set concerns HIV-1 SSGR+215. It is filed as cell-based.
The test system of another data set is HIV-1. It is filed as cell-based.
The next data set relates to HIV-1 Q151M complex. It is filed as cell-based.
Data set [3] relates to HIV-1 viral DNA synthesis (reverse transcriptase). The data set can be described thus: Quantitative PCR of viral DNA from infected HOS cells. It is filed as cell-based. Conditions: viral DNA collected 2, 4, 6 and 24 hours post-infection. From the text:
FIG. 5 is a schematic illustrating the steps of HIV-1 viral DNA synthesis. Viral DNA was isolated from infections over time and assayed by quantitative PCR to determine the amount of viral DNA produced corresponding to various points of DNA synthesis. The regions targeted by our PCR primers and probes are indicated and correspond to: initiation (RU5), minus strand transfer (U3), full length viral DNA (gag), and plus strand transfer (corresponding to second strand synthesis).
The effects of the target compounds on viral DNA production were determined by quantitative PCR. 293 cells were transfected as above and transfections were washed with PBS 8 hours post-transfection and fresh medium added. The transfection wash step was repeated 24 hours post-transfection and fresh medium was added. On the day prior to infection, HOS cells were plated at 2×10^5 cells on to 60 mm plates. Virus-containing supernatants were harvested at 48 hours as above and treated with 20 U/mL of RNase-free DNase I (Roche Applied Science, Indianapolis, Ind.) and 30 U/mL of DNase Turbo (Ambion, Foster City, Calif.). Cells were pre-incubated with the target compounds for 3 h. For each target compound, the treated virus-containing supernatants were concentrated to 7.5 mL, and infections carried out by adding 1.75 mL each to 4 plates of HOS cells. Cells were harvested at 2, 4, 6, and 24 hour intervals and the viral DNA purified using the Qiagen EZ1 DNA tissue kit (Valencia, Calif.). Quantitative PCR (qPCR) was used to determine quantities of DNA corresponding to various steps along the viral DNA synthesis pathway. qPCR primers and probes used were as previously described. (Julias, J. G., Ferris, A. L., Boyer, P. L. and Hughes, S. H. (2001) J. Virol. 75, 6537-46.).
In order to determine that the compounds are targeting HIV-1 reverse transcriptase in the cell based assays, viral DNA was isolated from infections over time and assayed by quantitative PCR to determine the amount of viral DNA produced corresponding to various points of DNA synthesis (FIG. 5). The regions targeted by our PCR primers and probes correspond to: initiation (RU5), minus strand transfer (U3), full length viral DNA (gag), and plus strand transfer (corresponding to the initiation of second strand synthesis).

The next data set concerns MT4 cells. Conditions: work from Ohuri and others; cited from earlier work.

Molecules are shown by their SMILES. Like-named read-outs stand apart in the source and are kept apart here.

As to `C#C[C@]1(CO)O[C@@H](n2cnc3c(N)nc(F)nc32)C[C@@H]1O` [C4′-ethynl-deoxy-2-fluoro-adenosine, C4′-ethynl-deoxy-2-fluoroadenosine], the “efficacy against WT versus C4′-methyl- and -ethyl-2-deoxyadenosine” value in data set [1] is “slightly improved efficacies against WT”. Moreover, the “effectiveness against HIV-1 in MT-4 cells” value in [2] was “effective compound against NRTI-resistant HIV-1, including the M184V variant”; in data set [2] (listed as C4′-ethynl-deoxy-2-fluoroadenosine), “effective against the wild-type and the M184V reverse transcriptase variant”. Also, the “cytotoxicity in MT-4 cells” value with MT-4 cells is “decreased cytotoxicity”. Further, in the data set with HIV-1 M184V variant, the “increase in EC50 values, M184V variant over wild-type” value was 2 fold.

For `C[C@]1(COP(=O)(O)OP(=O)(O)OP(=O)(O)O)O[C@@H](n2cnc3c(N)ncnc32)C[C@@H]1O` [C4′-methyl-2-dexoyadenosinetriphosphate], the chain termination entry at HIV-1 RT (longer time points, extended DNA products observed) is listed as “does not act as a chain terminator”. Besides, the “competition with normal nucleosides” value at HIV-1 RT (mixtures of ATP and the triphosphate) is given as “able to compete with normal nucleosides during DNA synthesis”. In addition, the “effect of triphosphate incorporation on DNA synthesis” value on HIV-1 RT (short time points, DNA or RNA template) is recorded as “pausing during DNA synthesis at the point of incorporation”.

Regarding `CCC1(CO)OC(n2cnc3c(N)ncnc32)CC1O` (stereo not drawn) [C4′Et-2-dA, 5-(6-Amino-purin-9-yl)-2-ethyl-2-hydroxymethyl-tetrahydro-furan-3-ol], in the data set with HIV-1 AZT-R, the “inhibition of NRTI resistance mutant AZT-R” value is “inhibitory”. For the same molecule, the “increase in the EC50 value, AZT-R variant over wild-type” value in the data set with HIV-1 AZT-R (HOS cells) came out at 3.9 fold. Also, the “inhibition of NRTI resistance mutant SSGR+215” value in the data set with HIV-1 SSGR+215 is “inhibitory”. Also, in the data set on HIV-1 (TZM-bl cells), the “effectiveness in TZM-bl cells compared with HOS cells” value is “equally as effective”. For the same molecule, the “inhibition of NRTI resistance mutant Q151M complex” value with HIV-1 Q151M complex was “inhibitory”. In addition, in data set [3], the “inhibition of DNA synthesis compared with AZT” value is given as “as well as or better than AZT”; the “late stage viral DNA synthesis (gag and 2nd Strand Transfer)” value is listed as “significantly diminished”. Further, the “selectivity index (CC50 to EC50 ratio)” value in the data set with HOS cells is on record as “greater than 140”.

As to `C[C@]1(CO)O[C@@H](n2cnc3c(N)ncnc32)C[C@@H]1O` [C4′Me-2-dA, C4′-methyl-2-deoxyadenosine], in the data set on HIV-1 AZT-R, the “inhibition of NRTI resistance mutant AZT-R” value is recorded as “inhibitory”. Further, the EC50 in [1] (read-out: EC50, relative infectivity of HIV-1 vectors) was found to be 48 nM. Also, the “cytotoxicity in MT4 cell killing assays” value in the data set on MT4 cells was “cytotoxic”. For the same molecule, the “inhibition of NRTI resistance mutant SSGR+215” value in the data set with HIV-1 SSGR+215 is “inhibitory”. Besides, the “effectiveness in TZM-bl cells compared with HOS cells” value with HIV-1 was “equally as effective”. Besides, in the data set with HIV-1 Q151M complex, the “inhibition of NRTI resistance mutant Q151M complex” value was “inhibitory”. In data set [3], the “inhibition of DNA synthesis compared with AZT” value is reported as “as well as or better than AZT”; the “late stage viral DNA synthesis (gag and 2nd Strand Transfer)” value is “significantly diminished”.

For orientation: EC50 means the concentration needed to bring the measured effect to its halfway point.
